Patent publication US11116817B2, “Antimicrobial agents and compositions comprising the same” (THE CURATORS OF THE UNIVERSITY OF MISSOURI, priority 2017, dated 2021)
Positions of bridges follow the written chain, without caps; N, C: chain ends. Non-standard residues stand in square brackets, D forms with d. No end group written: not given here. Abu = CC[C@H](N)C(=O)O

Experiments:
mouse red blood cells = type: cell-based
Procedure: The Hemolytic Assay includes the following procedures. Briefly, mouse red blood cells (RBCs, Innovative research, Novi, Mich.) were washed three times with phosphate-buffered saline (PBS, pH 7.4), centrifuged at 1000×g for 10 minutes, and re-suspended in PBS to 10% (v/v). The RBCs were treated with CAMPs (SEQ ID NOs: 1, 2, 3, and 4) at various concentrations ranging from 4 to 512 μg/ml (2-fold serial dilutions) at 37° C. for 1 hours. PBS and 0.2% Triton X-100 were used as negative and positive controls, respectively. The supernatant was transferred to a 96-well flat-bottomed polystyrene plate (Thermo Fisher Scientific), and the amount of hemoglobin released into the supernatant was determined by measuring the absorbance with a spectrophotometer at 540 nm. Hemolytic activity was expressed as the percentage of hemolysis and calculated using the following equation: hemolysis (%)=(As−A0)/(A100−A0)×100, where As is the absorbance of the sample, A100 is the absorbance of completely lysed RBCs in 0.2% Triton X-100, and A0 is the absorbance in the complete absence of hemolysis (PBS treatment). The assay was performed in triplicate. Therapeutic index (T.I.) was calculated according to a previously published formula: T.I.=MHC/MICGM. MHC was the minimum hemolytic concentration that caused 5% hemolysis of mouse RBCs. The MICGM was the minimum inhibitory concentration of the peptide concentrations against bacterial growth after the geometric mean was calculated. MICG− was the MICGM for Gram-negative bacteria; MICG+ was the MICGM for Gram-positive bacteria.

CHO-K1 cells = experiment: Cell cytotoxicity assay (MTT); type: cell-based, hamster
Procedure: The Cell Cytotoxicity Assay includes the following procedures. Mouse immature dendritic cell line, JAWSII (ATCC CRL-11904™), was cultured in Alpha minimum essential medium with ribonucleosides, deoxyribonucleosides, 4 mM L-glutamine, 1 mM sodium pyruvate, and 5 ng/ml murine Granulocyte macrophage colony-stimulating factor (GM-CSF) then supplemented with 20% FBS, 100 U/ml penicillin, and 100 μg/ml streptomycin at 37° C. in humidified air with 5% CO2. CCR-2 transfected CHO-K1 cells were cultured in RPMI-1640 supplemented with 10% FBS, 2 mM L-glutamine, 100 units/ml penicillin and streptomycin, and 500 μg/ml G418 at 37° C. in humidified air with 5% CO2. The cytotoxicity of CAMPs (SEQ ID NOs: 1, 2, 3, and 4) to JASWII and CHO-K1 cells was determined using MTT (3-(4,5-dimethylthiazol-2-yl)-2,5-diphenyltetrazolium bromide, Thermo Fisher Scientific) cell proliferation assay. Cells (5×10^3 cells/well) in 96-well microtiter plates were treated with peptides at 64, 128, 256, and 512 μg/ml for 4, 12, 24, and 48 hours at 37° C. After treatment, 20 μl of 12 mM MTT solution was added to each well and the plate was incubated for 4 hours. The medium in each well was replaced with 100 μl of dimethyl sulfoxide (DMSO, Sigma-Aldrich) to dissolve MTT crystals. The plates were read using a spectrophotometer at 540 nm. The viability of treated cells was expressed as the percentage of viability relative to the untreated control. The experiment was performed in triplicate.
Chicken macrophage cell lines MQ-NCSU and HD11 were maintained in RPMI-1640 media supplemented with 10% fetal bovine serum (FBS), 2% chicken serum, 100 U/ml penicillin and 100 μg/ml streptomycin (Sigma-Aldrich) at 37° C. in humidified air with 5% CO2. CHO-K1 cells were cultured in the same media without 2% chicken serum. For CCR2-transfected CHO-K1 cells, medium was supplemented with 500 μg/ml G418 was added (Sigma-Aldrich). Murine immature dendritic cell line JAWSII (ATCC CRL-11904™) was cultured in Alpha minimum essential medium containing 4 mM L-glutamine, 1 mM sodium pyruvate, 5 ng/ml murine Granulocyte macrophage colony-stimulating factor (GM-CSF), 20% FBS, 100 U/ml penicillin and 100 μg/ml streptomycin at 37° C. in humidified air with 5% CO2. The cell cytotoxicity was determined using the MTT (3-(4,5-dimethylthiazol-2-yl)-2,5-diphenyltetrazolium bromide cell proliferation assay according to the manufacturer's instruction (Thermo Fisher Scientific). Briefly, cells (5×10^3 cells/well) were seeded in 96-well tissue culture plates, incubated overnight and treated with the analogues at concentrations of 4, 16, 64 and 256 μg/ml for 4, 12, 24 and 48 hours at 37° C. After treatment, […] 12 mM MTT solution was added to each well. The plate was incubated for 4 hours and read at 540 nm. Viability was expressed as percentage of viable cells relative to the untreated control. The experiments were performed in triplicate.

JAWSII cells = experiment: Chemotaxis assay (48-well microchemotaxis chamber); type: cell-based, mouse; details: for chemotactic index (C.I.): peptide 64 μg/ml
Procedure: (§1) Migration of JAWSII and CCR-2 transfected CHO-K1 cells in response to CAMPs (SEQ ID NOs: 1, 2, 3, and 4) was determined using a 48-well microchemotaxis chamber technique as previously described. Chemotaxis buffer (Minimum Essential Medium containing 0.1% BSA, 100 U/ml penicillin, and 100 μg/ml streptomycin) and bacterial peptide N-Formyl-methionyl-leucyl-phenylalanine (fMLF, Sigma-Aldrich) were included as negative and positive controls, respectively. The results were presented as chemotactic index (C.I.)=number of migrated cells induced by CAMPs (SEQ ID NOs: 1, 2, 3, and 4)/number of migrated cells induced by chemotactic buffer. The assay was repeated five times.
as §1, with “CCR2-CHO-K1” for “CCR-2 transfected CHO-K1”, “the analogues” for “CAMPs (SEQ ID NOs: 1, 2, 3, and 4)”, “For JAWSII cells, chemotaxis” for “Chemotaxis”, “(C.I.). C.I.=number” for “(C.I.)=number”, “the analogues/number” for “CAMPs (SEQ ID NOs: 1, 2, 3, and 4)/number”

[1] = tested on: P. aeruginosa (ATCC 27853); type: cell-based; details: low salt condition (5 mM NaCl)
Procedure: (§2) The minimum inhibitory concentrations (MIC) of AvBDs (SEQ ID NOs: 5, 6, 7, 8, 9, 10, 11, 12, and 13) were determined under low salt and standard conditions according to the guidelines of the Clinical and Laboratory Standards Institute (CLSI). […] An equal volume […] of bacterial suspension was added to each well of the plate. The final bacterial concentration in the wells was 5×10^5 CFU/ml. […] To complement MIC-1s assays, the minimum bactericidal concentrations (MBC) were evaluated by sub-culturing the contents of the first two clear wells obtained in the MIC-1s assay onto LB agar plates. All assays were conducted in triplicate. The lowest peptide concentration inhibiting about, at least, or more than 99% of bacterial growth was defined as MBC-1s. The analogues were regarded as bactericidal when the MBC was determined to be no more than four times the MIC.

S. aureus (ATCC 29213) = type: cell-based; details: standard conditions, CLSI guidelines
Procedure: as §2

[2] = tested on: Salmonella enteric serovar Typhimurium (ATCC 14028); experiment: Antimicrobial activity assay (colony counting), Example Two; type: cell-based, S. Typhimurium; details: 2 to 128 μg/ml, 37° C., 2 hours
Procedure: Escherichia coli (ATCC 25922), Pseudomonas aeruginosa (ATCC 27853), Salmonella enteric serovar Typhimurium (ATCC 14028) and Staphylococcus aureus (ATCC 29213) were used to assess the antimicrobial activity of AvBD analogues (SEQ ID NOs: 5, 6, 7, 8, 9, 10, 11, 12, and 13). All bacterial strains were grown on Luria-Bertani (LB) agar plates or Trypticase Soy Agar with 5% Sheep Blood (TSA, Thermo Fisher Scientific) plates at 37° C. Antimicrobial activity was determined by a colony counting assay. In brief, bacteria were suspended in 100-fold diluted Mueller Hinton broth with 5 mM NaCl (minimal growth medium) to obtain a final bacterial concentration of 2×10^5 CFU/ml. Twenty-five microliters of bacterial suspension and 25 μl of AvBD analogue (SEQ ID NOs: 5, 6, 7, 8, 9, 10, 11, 12, and 13) solution were mixed in the wells of a 96-well polypropylene microtiter plate (Nunc™, Thermo Fisher Scientific). The final peptide concentrations were 2, 4, 8, 16, 32, 64 and 128 μg/ml. The minimal growth medium without AvBD peptide (SEQ ID NO: 5, 6, 7, 8, 9, 10, 11, 12, and 13) was included as a negative control. The bacterial-peptide mixtures were incubated at 37° C. for 2 hours, 10-fold serially diluted and plated on LB agar plates. […] Antimicrobial activity was expressed as percent of killing using the following formula: (CPUcontrol−CFUtreated)/CFUcontrol×100%. […]

[3] = tested on: E. coli, S. Typhimurium, P. aeruginosa and S. aureus; experiment: Antimicrobial activity assay (colony counting), Example Two, statements over all four bacteria; type: cell-based; details: for impact of NaCl on the killing activity: NaCl 5 to 150 mM; for killing activity compared with parent peptide: 2 to 128 μg/ml, 37° C., 2 hours
Procedure: Escherichia coli (ATCC 25922), Pseudomonas aeruginosa (ATCC 27853), Salmonella enteric serovar Typhimurium (ATCC 14028) and Staphylococcus aureus (ATCC 29213) were used to assess the antimicrobial activity of AvBD analogues (SEQ ID NOs: 5, 6, 7, 8, 9, 10, 11, 12, and 13). All bacterial strains were grown on Luria-Bertani (LB) agar plates or Trypticase Soy Agar with 5% Sheep Blood (TSA, Thermo Fisher Scientific) plates at 37° C. Antimicrobial activity was determined by a colony counting assay. In brief, bacteria were suspended in 100-fold diluted Mueller Hinton broth with 5 mM NaCl (minimal growth medium) to obtain a final bacterial concentration of 2×10^5 CFU/ml. Twenty-five microliters of bacterial suspension and 25 μl of AvBD analogue (SEQ ID NOs: 5, 6, 7, 8, 9, 10, 11, 12, and 13) solution were mixed in the wells of a 96-well polypropylene microtiter plate (Nunc™, Thermo Fisher Scientific). The final peptide concentrations were 2, 4, 8, 16, 32, 64 and 128 μg/ml. The minimal growth medium without AvBD peptide (SEQ ID NO: 5, 6, 7, 8, 9, 10, 11, 12, and 13) was included as a negative control. The bacterial-peptide mixtures were incubated at 37° C. for 2 hours, 10-fold serially diluted and plated on LB agar plates. The numbers of bacterial colonies were enumerated after 16 hours of incubation at 37° C. Antimicrobial activity was expressed as percent of killing using the following formula: (CPUcontrol−CFUtreated)/CFUcontrol×100%. To assess the resistance of AvBD analogues (SEQ ID NOs: 5, 6, 7, 8, 9, 10, 11, 12, and 13) to sodium chloride (NaCl), antimicrobial assays were carried out in the presence of 5 mM, 50 mM, 100 mM or 150 mM NaCl. All assays were performed in triplicate.

[4] = tested on: CCR-2 transfected CHO-K1 cells; experiment: Chemotaxis assay (48-well microchemotaxis chamber); type: cell-based, hamster
Procedure: as §1
as §1, with “CCR2-CHO-K1” for “CCR-2 transfected CHO-K1”, “the analogues” for “CAMPs (SEQ ID NOs: 1, 2, 3, and 4)”, “For JAWSII cells, chemotaxis” for “Chemotaxis”, “(C.I.). C.I.=number” for “(C.I.)=number”, “the analogues/number” for “CAMPs (SEQ ID NOs: 1, 2, 3, and 4)/number”

[5] = 64, 128, 256, and 512 μg/ml for 4 to 48 hours

| Substance | T.I. of G+ (therapeutic index, MHC/MICGM) (mouse red blood cells) | T.I. of G− (therapeutic index, MHC/MICGM) (mouse red blood cells) | MBS-Is [1] | impact of NaCl on the killing activity [3] | chemotactic activity [4] | further results |
| --- | --- | --- | --- | --- | --- | --- |
| Ac-LRRLKPLIRPWLRPLRRWWW-NH2 [CAMP-A] | 6.54±2.01 | 8.72±2.41 |  |  |  | effect on cell viability (CHO-K1 cells; concentration at about 128 μg/ml or greater): somewhat decreased |
| Ac-PIHRRIPPRWPRLKRRW-NH2 [CAMP-t2, PIHRRIPPRWPRLKRRW] | >13.45 ± 4.48 | >5.45 ± 2.54 |  |  |  | effect on cell viability (CHO-K1 cells; [5]): did not significantly affect cell viability |
| Ac-RKFLRRRGEVAHFSQKSLGLYCWWW-NH2 [CAMP-t1] | >3.27 ± 2.41 | >4.36 ± 1.21 |  |  |  | effect on cell viability (CHO-K1 cells; [5]): did not significantly affect cell viability |
| Ac-RRRWRKRRWWW-NH2 [CAMP-B, RRRWRKRRWWW] | > 12.36±4.18 | > 10.90±4.0 |  |  |  | effect on cell viability (CHO-K1 cells; [5]): did not significantly affect cell viability |
| GPDSCNHDRGLCRVGNCNPGEYLAKYCFEPVILCCKPLSPTPTKT (disulfide 5-34, 12-27, 17-35) [AvBD-12, reference compound] |  |  | >256 µg/mL |  |  | chemotactic index (C.I.) (JAWSII cells): 6.62; MIC (S. aureus (ATCC 29213)): >256^ μg/ml |
| GPDS[Abu]NHDRGLCRVGNCNPGEYLAKYCFEPVIL[Abu]CKPLSPTPTKT (disulfide 12-27, 17-35) [AvBD-12A4] |  |  | >256 µg/mL | some impact on killing activity due to salt |  | killing activity compared with AvBD-12 [2]: somewhat reduced |
| GPDS[Abu]NHDRGL[Abu]RVGNCNPGEYLAKY[Abu]FEPVIL[Abu]CKPLSPTPTKT (disulfide 17-35) [AvBD-12A5] |  |  | >256 µg/mL | some impact on killing activity due to salt | did not appear to exhibit chemotactic activity | chemotactic activity (JAWSII cells): did not appear to exhibit chemotactic activity |
| GPDS[Abu]NHDRGL[Abu]RVGN[Abu]NPGEYLAKY[Abu]FEPVIL[Abu][Abu]KPLSPTPTKT [AvBD-12A6] |  |  | >256 µg/mL | some impact on killing activity due to salt | did not appear to exhibit chemotactic activity | chemotactic activity (JAWSII cells): did not appear to exhibit chemotactic activity |
| GPHSANHVRGLARVGNANPGLYLAKYAFIPVILAAKPLSPTPTKT [AvBD-12A1] |  |  | 256 µg/mL | some impact from NaCl | mild or little chemotactic activity | killing activity compared with parent peptide [3]: more effective than the parent peptide AvBD-12 |
| GPRSANHKRGLARVGNANPGKYLAKYSFRPVILSSKPLSPTPTKT [AvBD-12A3] |  |  |  |  |  | effect on cell viability (CHO-K1 cells; 4, 16, 64, 256 μg/ml for 4, 12, 24, and 48 hour): did not appear to have any effect on cell viability |
| GPRSSNHKRGLSRVGNSNPGKYLAKYAFRPVILAAKPLSPTPTKT [AvBD-12A2] |  |  | 32 µg/mL | less adverse impact | mild or little chemotactic activity | chemotactic index (C.I.) (JAWSII cells): 2.37; killing activity compared with parent peptide [3]: more effective than the parent peptide AvBD-12 |
